Reference: a flash point compilation (Sun et al. 2020)
Where “and” joins values, the source holds several entries; their conditions need not be identical. Identical values can stand only once. Counter-ions that a name gives are not always drawn.

flash point	SMILES
43 °C	CC(C)OCCO [2-isopropoxyethanol]
-25 °C	CC(C)C=O [2-methyl-1-propanal]
71 °C	CNCCO [2-methylaminoethanol]
58 °C	CC1CCCCC1O (configuration not stated) [2-methylcyclohexanol]
-11 °C	CC1CCCO1 (configuration not stated) [2-methyltetrahydrofuran]
7 °C	Cc1cccs1 [2-methylthiophene]
69 °C	CCCCCCCC(C)=O [2-nonanone]
62 °C	CCCCCCC(C)=O [2-octanone]
7 °C	CC(C)(C)c1ccco1 [2-t-butylfuran]
107 °C	CCCCCCCCCC(C)O (configuration not stated) [2-undecanol]
89 °C	CCCCCCCCCC(C)=O [2-undecanone]
88 °C	CC(C)(C)CC(=O)O [3,3-dimethylbutanoic acid]
18 °C	C=CCI [3-iodo-1-propene]
-57 °C	C=CC(C)C [3-methyl-1-butene]
19 °C	CC(C)C(C)S (configuration not stated) [3-methyl-2-butanethiol]
6 °C	CC(=O)C(C)C [3-methyl-2-butanone]
-6 °C	CC=C(C)CC [3-methyl-2-pentene]
24 °C	CCC(C)C(CC)CC (configuration not stated) [3-methyl-4-ethylhexane]
62 °C	CC1CCCC(O)C1 (configuration not stated) [3-methylcyclohexanol]
7 °C	CCCCC(C)CC (configuration not stated) [3-methylheptane]
-3 °C	CCCC(C)CC (configuration not stated) [3-methylhexane]
38 °C	Cc1cccnc1 [3-methylpyridine]

flash point	SMILES
11 °C	Cc1ccsc1 [3-methylthiophene]
40 °C	Cc1cccnc1 [3-picoline]
49 °C	Cc1ccc(Cl)cc1 [4-chlorotoluene]
51 °C	CC(C)CCCO [4-methyl-1-pentanol]
-31 °C	C=CCC(C)C [4-methyl-1-pentene]
58 °C	CSCCC=O [4-thiapentanal]
15 °C	C#CCCCCl [5-chloro-1-pentyne]
38 °C	CC=C1CC2C=CC1C2 (configuration not stated) [5-ethylidene-2-norbornene]
47 °C	C=CCCCCO [5-hexen-1-ol]
36 °C	CC(=O)CCC(C)C [5-methyl-2-hexanone]
43 °C	CCC(=O)CC(C)CC (configuration not stated) [5-methyl-3-heptanone]
119 °C	C=CCCCCCCCCO [9-decen-1-ol]
-23 °C	CCN(C)CC [N,N-diethylmethylamine]
16 °C	CCNC(C)C [N-ethylisopropylamine]
36 °C	CC=NO [acetaldoxime]
82 °C	CC(=O)c1ccccc1 [acetophenone]
45 °C	C=C(C)c1ccccc1 [alpha-methylstyrene]
56 °C	c1ccc2occc2c1 [benzofuran]
-5 °C	CCCCOCC [butyl ethyl ether]
-6 °C	CCCC=O [butyraldehyde]
6 °C	C[C@H]1CC[C@@H](C)CC1 [cis-1,4-dimethylcyclohexane]
88 °C	C/C=C/C(=O)O [crotonic acid]

flash point	SMILES
-65 °C	C1CCC1 [cyclobutane]
-4 °C	NC1CCC1 [cyclobutylamine]
71 °C	OC1CCCCCC1 [cycloheptanol]
55 °C	O=C1CCCCCC1 [cycloheptanone]
51 °C	OC1CCCC1 [cyclopentanol]
-95 °C	C1CC1 [cyclopropane]
48 °C	CC(C)(C)SC(C)(C)C [di-t-butyl sulfide]
40 °C	CCSSCC [diethyl disulfide]
91 °C	CCOC(=O)/C=C/C(=O)OCC [diethyl fumarate]
117 °C	CCCCOCCOCCOCCCC [diethylene glycol dibutyl ether]
49 °C	CC(C)CC(=O)CC(C)C [diisobutyl ketone]
57 °C	CCCCCOCCCCC [dipentylether]
169 °C	CCCCCCCCCCCCCCCCCCCC [eicosane]
-48 °C	CCS [ethanethiol]
13 °C	CCOC(=O)C(C)C [ethyl isobutyrate]
-45 °C	C=COCC [ethyl vinyl ether]
-15 °C	Fc1ccccc1 [fluorobenzene]
18 °C	C1CCCNCC1 [hexamethyleneimine]
10 °C	CC(C)COC=O [isobutyl formate]
-24 °C	CC(C)C=O [isobutyraldehyde]
55 °C	CC(C)C(=O)O [isobutyric acid]

SMILES	flash point
CCC(C)I (configuration not stated) [2-iodobutane]	23 °C
CCC(C)(C)O [2-methyl-2-butanol]	21 °C
Cc1ccc2ccccc2c1 [2-methylnaphthalene]	97 °C
CCCC(C)O (configuration not stated) [2-pentanol]	40 °C
C=CCC#N [3-butenenitrile]	21 °C
CCCCOCCCN [3-butoxypropylamine]	63 °C
Oc1ccc(Cl)cc1 [4-chlorophenol]	115 °C
C=CC1CC=CCC1 (configuration not stated) [4-vinyl-1-cyclohexene]	16 °C
CC(=O)OC(C)=O [acetic anhydride]	49 °C
C=CC#N [acrylonitrile]	-1 °C
C=CCOC(C)=O [allyl acetate]	6 °C
O=Cc1ccccc1 [benzaldehyde]	62 °C
OCc1ccccc1 [benzyl alcohol]	93 °C
O=C(OCc1ccccc1)c1ccccc1 [benzyl benzoate]	147 °C
N#CCc1ccccc1 [benzyl cyanide]	101 °C
CCCCN=C=O [butyl isocyanate]	29 °C

SMILES	flash point
CCCC(=O)OC(=O)CCC [butyric anhydride]	87 °C
Clc1ccccc1 [chlorobenzene]	27 °C
O=CC=Cc1ccccc1 [cinnamaldehyde]	71 °C
NC1CCCCC1 [cyclohexylamine]	28 °C
CCNCC [diethylamine]	-26 °C and -23 °C
COC [dimethylether]	-83 °C
CS(C)=O [dimethylsulfoxide]	88 °C
c1ccc(Cc2ccccc2)cc1 [diphenylmethane]	127 °C
CC=O [ethanal]	-39 °C
CC(=O)O [ethanoic acid]	39 °C
C=CC(=O)OCC [ethyl acrylate]	9 °C
CCCC(=O)OCC [ethyl butyrate]	19 °C
CCN [ethylamine]	-17 °C
OCc1ccco1 [furfuryl alcohol]	65 °C
CCCCCCC#N [heptanenitrile]	58 °C
CC(=O)OCCC(C)C [isopentyl acetate]	25 °C
